# Results taken from patent US20240166681A1, “3'3' CYCLIC DINUCLEOTIDES CONTAINING ISONUCLEOTIDIC UNITS” (INSTITUTE OF ORGANIC CHEMISTRY AND BIOCHEMISTRY AS CR, V. …, priority 2021, published 2024).
# Read-outs that look alike come from different tables or passages of the source.
# Tests used:
# WT STING = WT STING (Homo sapiens, UniProt Q86WV6, H232R); assay: 293T WT STING standard reporter assay; type: cell-based; design: host or cells: 293T (ATCC CRL-3216), stably transfected; conditions: 293T wtSTING-FL cells, no digitonin, 7 h incubation, luciferase reporter
# Experimental: After 5 minutes incubation at room temperature (RT), 250 μL of the mixture was added dropwise to the cells in one well. Cells were incubated 36 hours at 37° C. with 5% CO2, and then detached with 0.05% Trypsin and 0.22 g/L EDTA (both cat. #L0941, Biowest, Riverside, USA).
# Transfected cells were seeded onto poly-D-lysine coated six well plates at density 50,000 cells per 1 cm^2 in DMEM medium with high glucose containing 10% heat inactivated FBS, 30 μg/mL blasticidin (cat. #ant-b1-05, InvivoGen, San Diego, USA), 0.06 mg/ml Penicillin G and 0.1 mg/ml Streptomycin Sulfate (both cat. #. L0018, Biowest, Riverside, USA). The medium was replenished every 3-4 days until visible colonies of cells resistant to blasticidin were formed.
# Blasticidin resistant cells stably expressing WT STING were further transfected with […] plasmid following the same procedure as described above. […] Homogeneous culture of stably double transfected cells was prepared by limiting dilution of cells in 96 well plates and wells with cells were selected that originated from a single cell.
# The medium was removed next day and three-fold serial dilutions of compounds in 100 μl medium were added to the cells. The plates with cells were incubated for 7 hours at 37° C. with 5% CO2. After 50 μl of the medium was removed, 30 μl of ONE-Glo™ Luciferase Assay System reagent (cat. #E6120, Promega, Madison, USA) was added to each well and luminescence was read on Synergy H1 (Biotek, Winooski, USA). […] (cat. #tlrl-nacga23), and 2′2′-cGAMP (cat. #tlrl-nacga22) were purchased from Invivogen (San Diego, USA).
# [1] = system: peripheral blood mononuclear cell (PBMC); assay: Peripheral blood mononuclear cell assay (cytokine levels); type: cell-based; conditions: 1 h with compound, wash, 15 h, average of at least two donors
# Experimental: Selected compounds were tested in an in vitro peripheral blood mononuclear cell (PBMC) assay. Freshly isolated PBMCs were seeded into U-shaped shaped 96-well plates at desity 500,000 cells per well in 50 μl of RPMI 1640 medium supplemented with 10% heat inactivated FBS. Serially dilluted tested compounds were added to wells in 50 μl of cultivation medium and cell were incubated with compounds for 1 h at 37° C. with 5% CO2. Plates with cells were then spun 500 g for 5 minutes and medium was removed. Cells were washed twice with the cell culture medium by the use of centrifugation and gently resuspended in 100 μl medium without compounds. After 15 hour incubation at 37° C. with 5% CO2, the cell culture medium was collected and the levels of interferon-alpha (INF-α), interferon-gamma (INF-γ) and tumor necrosis factor-alpha (TNF-α) were determined with ProcartaPlex Assays (ThermoFisher, Waltham, USA) and MAGPIX System (Merck KGaA, Darmstadt, Germany). GraphPad Prism (San Diego, CA, USA) was used to calculate the 50% effective concentration (EC50) from a 6-point dose-response curve. Values reported are an average of runs from at least two donors.
# WT STING, sequence (Q86WV6 whole entry H232R): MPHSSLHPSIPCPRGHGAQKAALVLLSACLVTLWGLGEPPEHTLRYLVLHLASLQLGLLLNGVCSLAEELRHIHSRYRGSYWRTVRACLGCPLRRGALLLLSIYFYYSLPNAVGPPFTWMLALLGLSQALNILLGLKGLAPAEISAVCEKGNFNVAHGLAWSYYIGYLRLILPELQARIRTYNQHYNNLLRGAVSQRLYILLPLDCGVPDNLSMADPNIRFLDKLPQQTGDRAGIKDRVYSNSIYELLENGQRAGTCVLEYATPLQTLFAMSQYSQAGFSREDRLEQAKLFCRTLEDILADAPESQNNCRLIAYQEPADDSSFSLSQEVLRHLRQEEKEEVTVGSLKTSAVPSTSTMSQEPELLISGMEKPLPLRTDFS
EC50 (WT STING),Structure (SMILES),EC50 ([1]; read-out: PBMC EC50 IFN-α),EC50 ([1]; read-out: PBMC EC50 IFN-γ),EC50 ([1]; read-out: PBMC EC50 TNF-α)
0.052 µM,"CC(C)(C)C(=O)OCOP1(=O)OC[C@H]2OC[C@@H](n3cnc4c(N)ncnc43)[C@@H]2OP(=O)(OCOC(=O)C(C)(C)C)OC[C@H]2O[C@@H](n3cnc4c(N)ncnc43)[C@H](F)[C@@H]2O1 (single isomer, unassigned) [Compound 36c]",,,
0.044 µM,"CC1(C(=O)OCOP2(=O)OC[C@H]3OC[C@@H](n4cnc5c(N)ncnc54)[C@@H]3OP(=O)(OCOC(=O)C3(C)CCCCC3)OC[C@H]3O[C@@H](n4cnc5c(N)ncnc54)[C@H](F)[C@@H]3O2)CCCCC1 (single isomer, unassigned) [Compound 56b]",,,
0.021 µM,"CC1(C(=O)OCOP2(=O)OC[C@H]3OC[C@@H](n4cnc5c(N)ncnc54)[C@@H]3OP(=O)(OCOC(=O)C3(C)CCCCC3)OC[C@H]3O[C@@H](n4cnc5c(N)ncnc54)[C@H](F)[C@@H]3O2)CCCCC1 (single isomer, unassigned) [Compound 56c]",,,
0.032 µM,"CCC(C)(C)C(=O)OCOP1(=O)OC[C@H]2OC[C@@H](n3cnc4c(N)ncnc43)[C@@H]2OP(=O)(OCOC(=O)C(C)(C)CC)OC[C@H]2O[C@@H](n3cnc4c(N)ncnc43)[C@H](F)[C@@H]2O1 (single isomer, unassigned) [Compound 57a]",,,
0.018 µM,"CCC(C)(C)C(=O)OCOP1(=O)OC[C@H]2OC[C@@H](n3cnc4c(N)ncnc43)[C@@H]2OP(=O)(OCOC(=O)C(C)(C)CC)OC[C@H]2O[C@@H](n3cnc4c(N)ncnc43)[C@H](F)[C@@H]2O1 (single isomer, unassigned) [Compound 57b]",,,
0.013 µM,"CCC(C)(C)C(=O)OCOP1(=O)OC[C@H]2OC[C@@H](n3cnc4c(N)ncnc43)[C@@H]2OP(=O)(OCOC(=O)C(C)(C)CC)OC[C@H]2O[C@@H](n3cnc4c(N)ncnc43)[C@H](F)[C@@H]2O1 (single isomer, unassigned) [Compound 57c]",,,
0.005 µM,"CCCCCCCC(=O)OCOP1(=O)OC[C@H]2OC[C@@H](n3cnc4c(N)ncnc43)[C@@H]2OP(=O)(OCOC(=O)CCCCCCC)OC[C@H]2O[C@@H](n3cnc4c(N)ncnc43)[C@H](F)[C@@H]2O1 (single isomer, unassigned) [Compound 58a]",,,
0.002 µM,"CCCCCCCC(=O)OCOP1(=O)OC[C@H]2OC[C@@H](n3cnc4c(N)ncnc43)[C@@H]2OP(=O)(OCOC(=O)CCCCCCC)OC[C@H]2O[C@@H](n3cnc4c(N)ncnc43)[C@H](F)[C@@H]2O1 (single isomer, unassigned) [Compound 58d]",0.038 µM,0.016 µM,0.037 µM

# The next lines start with the compound.
Structure (SMILES),EC50 (WT STING),EC50 ([1]; read-out: PBMC EC50 IFN-α),EC50 ([1]; read-out: PBMC EC50 IFN-γ),EC50 ([1]; read-out: PBMC EC50 TNF-α)
"CC(C)(C)C(=O)OCOP1(=O)OC[C@H]2OC[C@@H](n3cnc4c(N)ncnc43)[C@@H]2OP(=O)(OCOC(=O)C(C)(C)C)OC[C@H]2O[C@@H](n3cnc4c(N)ncnc43)[C@H](F)[C@@H]2O1 (single isomer, unassigned) [Compound 36a]",0.088 µM,,,
"CC(C)(C)C(=O)OCOP1(=O)OC[C@H]2OC[C@@H](n3cnc4c(N)ncnc43)[C@@H]2OP(=O)(OCOC(=O)C(C)(C)C)OC[C@H]2O[C@@H](n3cnc4c(N)ncnc43)[C@H](F)[C@@H]2O1 (single isomer, unassigned) [Compound 36b]",0.077 µM,,,
"CC(C)(C)C(=O)OCOP1(=O)OC[C@H]2OC[C@@H](n3cnc4c(N)ncnc43)[C@@H]2OP(=O)(OCOC(=O)C(C)(C)C)OC[C@H]2O[C@@H](n3cnc4c(N)ncnc43)[C@H](F)[C@@H]2O1 (single isomer, unassigned) [Compound 36d]",0.028 µM,0.184 µM,0.115 µM,0.326 µM
"CC1(C(=O)OCOP2(=O)OC[C@H]3OC[C@@H](n4cnc5c(N)ncnc54)[C@@H]3OP(=O)(OCOC(=O)C3(C)CCCCC3)OC[C@H]3O[C@@H](n4cnc5c(N)ncnc54)[C@H](F)[C@@H]3O2)CCCCC1 (single isomer, unassigned) [Compound 56a]",0.285 µM,,,
"CC1(C(=O)OCOP2(=O)OC[C@H]3OC[C@@H](n4cnc5c(N)ncnc54)[C@@H]3OP(=O)(OCOC(=O)C3(C)CCCCC3)OC[C@H]3O[C@@H](n4cnc5c(N)ncnc54)[C@H](F)[C@@H]3O2)CCCCC1 (single isomer, unassigned) [Compound 56d]",0.041 µM,0.325 µM,0.048 µM,0.159 µM
"CCC(C)(C)C(=O)OCOP1(=O)OC[C@H]2OC[C@@H](n3cnc4c(N)ncnc43)[C@@H]2OP(=O)(OCOC(=O)C(C)(C)CC)OC[C@H]2O[C@@H](n3cnc4c(N)ncnc43)[C@H](F)[C@@H]2O1 (single isomer, unassigned) [Compound 57d]",0.014 µM,0.258 µM,0.08 µM,0.206 µM
"CCCCCCCC(=O)OCOP1(=O)OC[C@H]2OC[C@@H](n3cnc4c(N)ncnc43)[C@@H]2OP(=O)(OCOC(=O)CCCCCCC)OC[C@H]2O[C@@H](n3cnc4c(N)ncnc43)[C@H](F)[C@@H]2O1 (single isomer, unassigned) [Compound 58b]",0.001 µM,,,
"CCCCCCCC(=O)OCOP1(=O)OC[C@H]2OC[C@@H](n3cnc4c(N)ncnc43)[C@@H]2OP(=O)(OCOC(=O)CCCCCCC)OC[C@H]2O[C@@H](n3cnc4c(N)ncnc43)[C@H](F)[C@@H]2O1 (single isomer, unassigned) [Compound 58c]",0.002 µM,,,
"Nc1nc2c(ncn2[C@@H]2O[C@@H]3COP(=O)(O)O[C@@H]4[C@H](O)[C@@H](COP(=O)(O)O[C@@H]2[C@@H]3O)O[C@H]4n2cnc3c(N)ncnc32)c(=O)[nH]1 [2′2′-cGAMP, reference compound]",10.2 µM,,,
